From article PMC3877906, “Polypeptide Modulators of TRPV1 Produce Analgesia without Hyperthermia” (Marine Drugs, 2013)
Entries after “also recorded” stand apart in the source; their conditions may differ.

Legend:
TRPA1 = TRPA1 activity, oocyte electrophysiology or agonist-induced fluorescence readout; type: cell-based; settings: concentrations of up to 2 μM; data not shown
Description: (§1) The formalin test is a complex in vivo model of pain where TRPV1’s function is more integrative than perceptive. In the mouse, intraplantar injections of formalin produce a biphasic behavioral reaction. The molecular mechanisms underlying formalin-induced pain are based on tissue damage, non-specific activation of nociceptors and direct activation of TRPA1 receptors (measured in phase I) that drive the local neurogenic inflammation and CNS sensitization (measured in phase 2). APHC1 and APHC3 were tested on TRPA1 for inhibitory/activation effects.

TRPV3 = TRPV3 activity, oocyte electrophysiology or agonist-induced fluorescence readout; type: cell-based; settings: concentrations of up to 2 μM; data not shown
p2X3 = p2X3 activity, oocyte electrophysiology or agonist-induced fluorescence readout; type: cell-based; settings: concentrations of up to 2 μM; data not shown
CD-1 mice [1] = assay: hot plate test; type: in vivo, mouse
Experimental: The hot plate test is a most simple for TRPV1 inhibitor characterization since TRPV1 play significant role in temperature sensation. Effect of APHC1 and APHC3 on thermal nociception at dose 0.1 mg/kg after intramuscular, intraperitoneal and intravenous administration was measured before. […] Here we assessed changes in thermal nociception to a noxious thermal stimuli elicited by different doses of APHC1 and APHC3 to determine minimal effective dose. […] Both polypeptides reached maximal effect at 0.1 mg/kg.
(§2) All experiments were performed in accordance with the recommendations in the “Principles of Laboratory Animal Care” and after approval by the Animal Care and Use Committee of the Branch of the IBCh RAS (Pushchino, Russia). Adult male CD-1 mice (Animal Breeding Facility Branch of Shemyakin-Ovchinnikov Institute of Bioorganic Chemistry, Russian Academy of Sciences, Pushchino, Russia) weighing 20–25 g were used. Animals were allowed to acclimate in the laboratory for at least five days. Mice were housed at room temperature (23 ± 2 °C) on a 12 h light–dark cycle with food and water available ad libitum. Polypeptides or vehicle was administered intravenously 15 min before testing.
(§3) The significance of the data was determined by analysis of variance (ANOVA) followed by Tukey’s test. Data are presented as mean ± S.E.
Sensitivity to a thermal stimulus was determined by hind paw withdrawal or licking latency using a Hot-Plate Analgesia Meter (Columbus Instruments, Columbus, OH, USA) at 55 °C.

CD-1 mice [2] = assay: formalin test; type: in vivo, mouse; settings: for formalin-induced response: 0.01 mg/kg; for inhibition of second phase of formalin test: 10.01–60 min; for effect on first phase of formalin test, in words / effect on second phase of formalin test, in words: vs saline
Description: as §1, §2, §3
Formalin (10 μL 2% in saline) was injected intradermally into the left hind paw. […] This test produces a distinct biphasic response. The total duration of paw flinching during the early phase (0–10 min) and late phase (10.01–60 min) were summed.

CD-1 mice [3] = assay: CFA-induced thermal hyperalgesia; type: in vivo, mouse; settings: i.v., n = 9; for reversal of CFA-induced thermal hyperalgesia: 0.1-0.01 mg/kg (dose of this value not stated), 24 h after CFA, 53 °C; for CFA-induced thermal hyperalgesia, in words: 0.1-0.01 mg/kg, vs saline
Description: CFA-induced thermal hyperalgesia depends on TRPV1 activation; this was shown in TRPV1-deficient mice and using TRPV1 antagonists. CFA-induced thermal hyperalgesia is a complex process where different inflammatory pathways acting via several mechanisms lower the TRPV1 temperature threshold and influence thermal sensitivity. CFA-treated mice developed thermal hyperalgesia in the injected paw, this manifested as a decrease in the latency to paw withdrawal in response to thermal stimuli (Figure 4c).
as §2, §3
Complete Freund’s adjuvant suspended in an oil/saline (1:1) emulsion, was injected into the plantar surface of the left hind-paw of mice (20 μL/paw). Control mice received 20 μL of saline (i.pl.). Injected paw withdrawal latencies in response to thermal stimulation (53 °C) were measured 24 h after CFA injection.

CD-1 mice [4] = assay: acetic acid-induced writhing (abdominal constriction test of visceral pain); type: in vivo, mouse
Experimental: TRPV1 can be activated by low pH stimuli and is therefore involved in pain caused by acidification, which can be measured in the pain behavior model of acetic acid-induced writhing. Intraperitoneal administration of acetic acid provokes a very stereotyped behavior in the mouse. The constriction response is considered the definitive measure of visceral pain intensity. Animals were pretreated with polypeptides 15 min before acetic acid injection.
as §2, §3
Separate groups of mice were injected with 0.6% acetic acid in saline (10 mL∙kg^−1 intraperitoneally (i.p.)). Mice were immediately placed inside transparent glass cylinders, and the number of writhes was recorded for 15 min.

CD-1 mice [5] = assay: core body temperature (rectal measuring); type: in vivo, mouse; settings: for change in core body temperature: n = 7; for core body temperature, in words: rectal measuring, mice, vs saline
Experimental: Admittedly, hyperthermia is considered a critical side effect of TRPV1 antagonists, so we assessed the effect of the polypeptides on body temperature. Polypeptides were administered intravenously at doses 0.1 mg/kg and 0.5 mg/kg, and rectal temperature was monitored (Figure 5a,b).
as §2, §3
The MLT1404 Rectal Temperature Probe and Chart Power Lab (ADInstruments Inc., Colorado Springs, CO, USA) was used to record body temperature. During recording, the animals were placed in a MLA5018 Rodent Restrainer (ADInstruments Inc., Colorado Springs, CO, USA). The adaptation period was 20 min. Core body temperature was recorded every minute for 20 min before and 100 min after test compound administration. AMG9810 was dissolved in DMSO and was injected intraperitoneally.

CD-1 mice [6] = assay: pain models in vivo, overall; parameters: species or system mouse; settings: i.v.
Experimental: as §2, §3

CD-1 mice [7] = settings: 0.1 mg/kg, intravenous; ref [15],[16]; cited from earlier work
Experimental: The hot plate test is a most simple for TRPV1 inhibitor characterization since TRPV1 play significant role in temperature sensation. Effect of APHC1 and APHC3 on thermal nociception at dose 0.1 mg/kg after intramuscular, intraperitoneal and intravenous administration was measured before. […] Here we assessed changes in thermal nociception to a noxious thermal stimuli elicited by different doses of APHC1 and APHC3 to determine minimal effective dose. Intravenous administration ...

[8] = i.v., 15 min before test, 55 °C, n = 9 per group, vs saline
[9] = 0.1 mg/kg i.v., n = 9, vs saline

Row | Substance | agonistic/antagonistic activity at TRPA1 (TRPA1) | agonistic/antagonistic activity at TRPV3 (TRPV3) | agonistic/antagonistic activity at p2X3 (p2X3) | paw withdrawal latency, hot plate (CD-1 mice [1]; [8]) | dose at which maximal effect is reached, hot plate (CD-1 mice [1]; i.v., 55 °C, n = 9) [mg/kg] | formalin-induced response (CD-1 mice [2]) | inhibition of second phase of formalin test (CD-1 mice [2]; 0.1 mg/kg i.v., n = 9) [%] | effect on first phase of formalin test, in words (CD-1 mice [2]; 0.1 mg/kg i.v., n = 9) | effect on second phase of formalin test, in words (CD-1 mice [2]; 0.1 mg/kg i.v., n = 9) | reversal of CFA-induced thermal hyperalgesia (CD-1 mice [3]) | CFA-induced thermal hyperalgesia, in words (CD-1 mice [3]) | number of writhes, in words (CD-1 mice [4]; [9]) | core body temperature, in words (CD-1 mice [5]) | doses with antinociceptive and analgesic activity in vivo (CD-1 mice [6]) [mg/kg] | paw withdrawal latency, hot plate, previous studies (CD-1 mice [7]) | also measured
1 | APHC1: polypeptide modulator of TRPV1 from sea anemone Heteractis crispa; homologous to BPTI/Kunitz type serine-protease inhibitors; produced recombinantly in E. coli (GSICLEPKVVGPCTAYFRRFYFDSETGKCTVFIYGGCEGNGNNFETLRACRAICRA; left off: TRX, end not stated, cleaved) | neither agonistic nor antagonistic activity | neither agonistic nor antagonistic activity | neither agonistic nor antagonistic activity | Dose dependent inhibition of thermal nociception; also recorded: significantly increased paw withdrawal latency | 0.1 | no significant influence | 70 | significantly attenuated the first phase | significantly inhibited the second phase | ~ 80% | Dose dependent inhibition of CFA-induced thermal hyperalgesia; also recorded: significantly reduced thermal hyperalgesia; also recorded: clearly dose-dependent | did not produce a statistically significant effect; also recorded: did not significantly inhibit the response to acetic acid | did not cause hyperthermia; also recorded: significantly decreased core body temperature in both tested doses; also recorded: moderate decrease in core body temperature | 0.01 to 0.1 | significantly prolonged paw withdrawal latency | paw withdrawal latency, hot plate (CD-1 mice [1]; 0.001 mg/kg i.v., data not shown): did not prolong paw withdrawal latency; antinociception in hot plate test (CD-1 mice [1]; 0.01 mg/kg i.v., 55 °C, n = 9): produced antinociception; attenuation of first phase of formalin test (CD-1 mice [2]; 0.1 mg/kg i.v., 0–10 min, n = 9, "39% of response"): 39%; number of writhes, in words (CD-1 mice [4]; 0.5 mg/kg i.v.): significantly reduced number of writhes; change in core body temperature (CD-1 mice [5]; 0.1 mg/kg i.v., in the 30 min after administration, stayed at this level): −0.8 °C; change in core body temperature (CD-1 mice [5]; 0.5 mg/kg i.v., at the end of data acquisition time): −2.1 °C
2 | APHC3: polypeptide from Heteractis crispa highly homologous to APHC1, differing in four of 56 amino acids; produced recombinantly in E. coli (GSICLEPKVVGPCTAYFPRFYFNSETGKCTPFIYGGCEGNGNNFETLRACRGICRA; left off: TRX, end not stated, cleaved) | neither agonistic nor antagonistic activity | neither agonistic nor antagonistic activity | neither agonistic nor antagonistic activity | Dose dependent inhibition of thermal nociception; also recorded: significantly increased paw withdrawal latency | 0.1 | no significant influence | 86 | did not affect the first phase of the response; also recorded: no significant effect on phase 1 | almost completely blocked phase 2; also recorded: significantly inhibited the second phase | 34% | Dose dependent inhibition of CFA-induced thermal hyperalgesia; also recorded: significantly reduced thermal hyperalgesia | significantly reduced the number of writhes | did not cause hyperthermia; also recorded: modest hypothermic effect; also recorded: moderate decrease in core body temperature | 0.01 to 0.1 | significantly prolonged paw withdrawal latency | inhibition of number of writhes (CD-1 mice [4]; 0.1 and 0.5 mg/kg i.v. 15 min before 0.6% acetic acid i.p., n = 9): 50%; change in core body temperature (CD-1 mice [5]; 0.1 mg/kg i.v., 60 min after administration): −0.6 °C; change in core body temperature (CD-1 mice [5]; 0.5 mg/kg i.v., not statistically significant): −0.4 °C
